Measured values from patent US7371207B2 (Wyeth, priority 2002, dated 2008).
“Also recorded” adds a separate entry of the source.

How the values were obtained:
[1] = system: gene expression in the uterus; test: GeneChip microarray survey of E2 regulated gene expression, uterus; conditions: 20 μg/kg/day E2 s.c. six weeks; WT and ERβKO ovariectomized mice; number of genes
Method: (§1) FIG. 1 depicts a pattern analysis generated by a GeneChip microarray analysis. […] Two hours following the final dose, the mice were euthanized and 13 tissues removed for RNA preparation. Two independent studies were performed, with total RNA pooled from two groups of three animals for each condition. Gene expression was quantified by GeneChip microarrays using murine U74 sub A arrays. Data were analyzed for patterns indicating either ERα or ERβ dependent regulation as shown. […] The number of genes in each tissue that matched the theoretical induction (↑) or repression (↓) patterns for ERα or ERβ are indicated.
(§2) One week later, the animals were ovariectomized.
GeneChip—Total RNA was prepared separately from each individual organ by using Trizol (Invitrogen) followed by subsequent repurification on Rneasy columns (Qiagen). In general, two pools of RNA were created using equal amounts of RNA from three mice. For small organs such as pituitary, an equal amount of RNA from six animals was combined.
(§3) Target Preparation and Array Hybridization—Total RNA was used to generate biotin labeled cRNA target as described (8) which was hybridized to the murine MG_U74Av2 probe arrays (Affymetrix, Santa Clara, Calif.) for 16 h at 45° C. Eleven biotin-labeled cRNAs at defined concentration were spiked into each hybridization and used to convert average difference values to frequencies expressed as parts per million.
The resulting data set was queried for genes whose regulation was dependent on ERα or ERβ.

[2] = system: gene expression in the pituitary; test: GeneChip microarray survey of E2 regulated gene expression, pituitary; assay type: in vivo, mouse
Source text: as §2

[3] = system: gene expression in bone marrow; test: GeneChip microarray survey of E2 regulated gene expression, bone marrow; assay type: in vivo, mouse; conditions: 20 μg/kg/day E2 s.c. six weeks; WT and ERβKO ovariectomized mice; number of genes
Method: as §1, §2
GeneChip—Total RNA was prepared separately from each individual organ by using Trizol (Invitrogen) followed by subsequent repurification on Rneasy columns (Qiagen). In general, two pools of RNA were created using equal amounts of RNA from three mice. […]
as §3, with “million. […]” for “million.”

[4] = system: gene expression in the kidney; test: Real-time PCR of kidney gene expression in ovariectomized WT mice
Source text: FIGS. 5A-5B show a series of graphs showing expression levels for various genes. […] (B) Uterine wet weights (mg) and gene expression values (mean±SEM).
FIGS. 6A-6D show a series of bar graphs depicting relative expression levels for various genes.
as §2

[5] = system: gene expression in the uterus; test: Real-time PCR of uterine gene expression in ovariectomized WT mice; assay type: in vivo, mouse; conditions: various doses s.c. six weeks, FIG. 5
Source text: as §2

[6] = system: gene expression in the kidney; test: In situ hybridization of kidney, ovariectomized mice; assay type: in vivo, mouse; conditions: 20 μg/kg/day E2 six weeks, FIG. 3
Source text: No signal was detected with the corresponding sense probes.
Generally, in situ hybridization comprises the following major steps: (1) fixation of tissue or biological structure to be analyzed; (2) prehybridization treatment of the biological structure to increase accessibility of target nucleic acid, and to reduce nonspecific binding; (3) hybridization of the mixture of nucleic acids to the nucleic acid in the biological structure or tissue; (4) post-hybridization washes to remove nucleic acid fragments not bound in the hybridization, and (5) detection of the hybridized nucleic acid fragments. The probes used in such applications are typically labeled, for example, with radioisotopes or fluorescent reporters. Preferred probes are sufficiently long, for example, from about 50, 100, or 200 nucleotides to about 1000 or more nucleotides, to enable specific hybridization with the target nucleic acid(s) under stringent conditions.
as §2

[7] = system: gene expression in the kidney of mice expressing ΔAF1-ERα; test: Real-time PCR of kidney gene expression in ERαERβKO or ERαKO mice expressing ΔAF1-ERα
Method: Kidney gene expression values were determined by real-time PCR for each individual animal and normalized for GAPDH expression. The mean expression level in vehicle-treated WT mice was defined as 1 for each gene. *p<0.01 for comparison to vehicle treated animals.
One week later, the animals were ovariectomized. Commencing the day after ovariectomy, each animal received a daily subcutaneous treatment with vehicle (50% DMSO, 50% phosphate buffered saline) or vehicle containing treatments for six weeks. Each group consisted of six or seven animals. Approximately 2 hours following the final treatment, the animals were euthanized with selected tissues frozen in liquid nitrogen for RNA analysis or on dry ice for histology.

[8] = 20 μg/kg/day E2 s.c. six weeks, WT and ERβKO ovariectomized mice, number of genes
[9] = 10 μg/kg/day E2 or 5 mg/kg/day tamoxifen, 6 weeks, FIG. 8

C[C@]12CC[C@@H]3c4ccc(O)cc4CC[C@H]3[C@@H]1CC[C@@H]2O [E2, 17β-estradiol]
ERα pattern regulations in uterus, number of inductions [1]: 514
ERα pattern regulations in uterus, number of repressions [1]: 19
ERα pattern regulations in pituitary, number of inductions [2, 8]: 56
ERα pattern regulations in pituitary, number of repressions [2, 8]: 30
Kallikrein-9 expression in pituitary ([2]; mouse, in vivo): Induced
ERα pattern regulations in bone marrow, number of inductions [3]: 3
ERα pattern regulations in bone marrow, number of repressions [3]: 3
BCAT1 expression in kidney, WT mice [4, 9]: induced
CYP7B1 expression in kidney, WT mice [4, 9]: induced
TF expression in kidney, WT mice [4, 9]: induced
ED50 for stimulation of CYP7B1, TF, STAT5A, and BCAT1 in the kidney ([4]; ovariectomized WT mice, various doses s.c. six weeks, FIG. 5): about 3 μg/kg/day
ED50 for BCAT1 induction in the uterus [5]: 0.2 µg/kg/day
ED50 for c-fos induction in the uterus [5]: 2.7 µg/kg/day
localization of induction of CYP7B1, TF, STAT5A and GADD45G in mouse kidney [6]: induction of gene expression occurred in the juxtamedullary region of the kidney
CYP7B1 expression in kidney, mice expressing ΔAF1-ERα (ERαERβKO or ERαKO) ([7]; 10 μg/kg/day E2, 6 weeks, FIG. 8): increased CYP7B1 expression
BCAT1 expression in kidney, ERαERβKO mice [7, 9]: stimulated BCAT1 expression
TF expression in kidney, ERαERβKO mice (express only ΔAF1-ERα) [7, 9]: Neither compound could induce TF expression
mechanism of induction of BCAT1 in kidney (ERα AF1 or AF2) ([7]; WT versus ΔAF1-ERα mice, E2 versus tamoxifen): either AF1 or AF2 mechanisms; also recorded: both AF1 and AF2 mechanisms
